# Experimental data as given in patent US10787462B2, “Heterocyclic compound” (TAKEDA PHARMACEUTICAL COMPANY LIMITED, priority 2015, dated 2020).
# Target: T1, human RIPK1 (1-375) (Homo sapiens, UniProt Q13546)
# T1 construct: human RIPK1 (1-375) gene; GST; made in house; host or cells: Sf-9 insect cells
# T1 sequence (Q13546 1-375): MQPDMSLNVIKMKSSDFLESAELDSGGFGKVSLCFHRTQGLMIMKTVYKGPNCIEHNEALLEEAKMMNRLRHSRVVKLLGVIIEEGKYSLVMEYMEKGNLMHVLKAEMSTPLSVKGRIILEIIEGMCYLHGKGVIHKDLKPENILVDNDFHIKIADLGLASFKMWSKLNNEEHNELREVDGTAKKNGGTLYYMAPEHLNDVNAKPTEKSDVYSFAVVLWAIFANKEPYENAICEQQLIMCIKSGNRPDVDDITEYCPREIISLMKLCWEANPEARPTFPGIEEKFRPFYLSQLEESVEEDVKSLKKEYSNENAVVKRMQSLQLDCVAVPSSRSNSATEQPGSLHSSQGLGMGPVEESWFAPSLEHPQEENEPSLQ
# Experiment: Human RIPK1 enzyme inhibitory effect (ADP-Glo Kinase Assay)
# Format: biochemical
# Conditions: 10 μM test compound; well without enzyme = 100% inhibition; 10 µM
# Outline: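 ADP-Glo luminescence read-out of ADP formed over 120 min at room temperature after adding 0.6 mM ATP solution (stock concentration). Compound and Sf-9-expressed, GST-purified RIPK1 (1-375) were first incubated together for 20 min in HEPES pH 7.5 buffer with MgCl2, Tween-20 and DTT.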
row,human RIPK1 enzyme inhibitory effect at 10 μM (% inhibition) [%],Compound
1,95,"CN1C(=O)C(N2CCc3c(nn(Cc4ccccc4F)c3Cl)C2=O)CCc2ccncc21 (stereo not drawn) [Example 104, 3-(3-chloro-2-(2-fluorobenzyl)-7-oxo-2,4,5,7-tetrahydro-6H-pyrazolo[3,4-c]pyridin-6-yl)-1-methyl-1,3,4,5-tetrahydro-2H-pyrido[3,4-b]azepin-2-one]"
2,99,"CN1C(=O)C(N2CCc3c(nn(Cc4ccccc4)c3Cl)C2=O)CCc2ncccc21 (stereo not drawn) [Example 65, 7-(2-benzyl-3-chloro-7-oxo-2,4,5,7-tetrahydro-6H-pyrazolo[3,4-c]pyridin-6-yl)-5-methyl-5,7,8,9-tetrahydro-6H-pyrido[3,2-b]azepin-6-one]"
3,84,"CN1C(=O)C(N2CCc3c(nn(Cc4ccccc4)c3Cl)C2=O)CCc2c1cnn2C (stereo not drawn) [Example 128, 6-(2-benzyl-3-chloro-7-oxo-2,4,5,7-tetrahydro-6H-pyrazolo[3,4-c]pyridin-6-yl)-1,4-dimethyl-4,6,7,8-tetrahydropyrazolo[4,3-b]azepin-5(1H)-one]"
4,98,"CN1C(=O)C(N2CCc3c(nn(Cc4ccccc4)c3Cl)C2=O)CCc2cnccc21 (stereo not drawn) [Example 99, 3-(2-benzyl-3-chloro-7-oxo-2,4,5,7-tetrahydro-6H-pyrazolo[3,4-c]pyridin-6-yl)-1-methyl-1,3,4,5-tetrahydro-2H-pyrido[4,3-b]azepin-2-one]"

# Same assay, conditions: read-out: human RIPK1 enzyme inhibitory effect at 10 μM (% inhibition), 10 μM test compound; well without enzyme = 100% inhibition
row,Compound,inhibition at 10 µM [%]
1,"Cc1c2c(nn1Cc1ccccc1)C(=O)N([C@H]1COc3ccc(C#N)cc3N(C)C1=O)CC2 [Example 85, (3S)-3-(2-benzyl-3-methyl-7-oxo-2,4,5,7-tetrahydro-6H-pyrazolo[3,4-c]pyridin-6-yl)-5-methyl-4-oxo-2,3,4,5-tetrahydro-1,5-benzoxazepine-7-carbonitrile]",101
2,"CNC(=O)c1ccc2c(c1)N(C)C(=O)[C@@H](N1CCc3c(nn(Cc4ccccc4)c3Cl)C1=O)CO2 [Example 89, (3S)-3-(2-benzyl-3-chloro-7-oxo-2,4,5,7-tetrahydro-6H-pyrazolo[3,4-c]pyridin-6-yl)-N,5-dimethyl-4-oxo-2,3,4,5-tetrahydro-1,5-benzoxazepine-7-carboxamide]",101
3,"CN1C(=O)[C@@H](N2Cc3c(nn(Cc4ccccc4)c3Cl)C2=O)COc2ccccc21 [Example 78, (3S)-3-(2-benzyl-3-chloro-6-oxo-2,6-dihydropyrrolo[3,4-c]pyrazol-5(4H)-yl)-5-methyl-2.3-dihydro-1,5-benzoxazepin-4(5H)-one]",99
4,"CC1Cc2cn(Cc3ccccc3)nc2C(=O)N1[C@H]1COc2ccccc2N(C)C1=O (stereo partly drawn) [Example 68, (3S)-3-(2-benzyl-5-methyl-7-oxo-2,4,5,7-tetrahydro-6H-pyrazolo[3,4-c]pyridin-6-yl)-5-methyl-2,3-dihydro-1,5-benzoxazepin-4(5H)-one]",100
5,"CN1C(=O)[C@@H](N2CCc3c(nn(Cc4ccccc4)c3C3CC3)C2=O)COc2ccccc21 [Example 159, (3S)-3-(2-benzyl-3-cyclopropyl-7-oxo-2,4,5,7-tetrahydro-6H-pyrazolo[3,4-c]pyridin-6-yl)-5-methyl-2,3-dihydro-1,5-benzoxazepin-4(5H)-one]",100
6,"CN1C(=O)[C@@H](N2CCc3c(nc(Cc4ccccc4)n3C)C2=O)COc2ccccc21 [Example 56, (3S)-3-(2-benzyl-1-methyl-4-oxo-1,4,6,7-tetrahydro-5H-imidazo[4,5-c]pyridin-5-yl)-5-methyl-2,3-dihydro-1,5-benzoxazepin-4(5H)-one]",96
7,"CN(C)C(=O)c1ccc2c(c1)N(C)C(=O)[C@@H](N1CCc3c(nn(Cc4ccccc4)c3Cl)C1=O)CO2 [Example 90, (3S)-3-(2-benzyl-3-chloro-7-oxo-2,4,5,7-tetrahydro-6H-pyrazolo[3,4-c]pyridin-6-yl)-N,N,5-trimethyl-4-oxo-2,3,4,5-tetrahydro-1,5-benzoxazepine-7-carboxamide]",101
8,"O=C1Nc2ccc(Br)cc2OC[C@@H]1N1CCc2c(nn(Cc3ccccc3)c2Cl)C1=O [Example 82, (3S)-3-(2-benzyl-3-chloro-7-oxo-2,4,5,7-tetrahydro-6H-pyrazolo[3,4-c]pyridin-6-yl)-8-bromo-2,3-dihydro-1,5-benzoxazepin-4(5H)-one]",99
9,"CN1C(=O)[C@@H](N2CCc3c(nn(Cc4ccccc4)c3Cl)C2=O)COc2cc(C(=O)O)ccc21 [Example 61, (3S)-3-(2-benzyl-3-chloro-7-oxo-2,4,5,7-tetrahydro-6H-pyrazolo[3,4-c]pyridin-6-yl)-5-methyl-4-oxo-2,3,4,5-tetrahydro-1,5-benzoxazepine-8-carboxylic acid]",100

# Further lines, results first:
row,inhibition at 10 µM [%],Compound
1,98,"CN1C(=O)[C@@H](N2CCc3cn(CC4(C)CCC4)nc3C2=O)COc2ccccc21 [Example 173, (3S)-5-methyl-3-(2-((1-methylcyclobutyl)methyl)-7-oxo-2,4,5,7-tetrahydro-6H-pyrazolo[3,4-c]pyridin-6-yl)-2,3-dihydro-1,5-benzoxazepin-4(5H)-one]"
2,53,"CN1C(=O)[C@@H](N2CCc3cn(CC4CCS(=O)(=O)C4)nc3C2=O)COc2ccccc21 (stereo partly drawn) [Example 163, (3S)-3-(2-((1,1-dioxidotetrahydrothiophen-3-yl)methyl)-7-oxo-2,4,5,7-tetrahydro-6H-pyrazolo[3,4-c]pyridin-6-yl)-5-methyl-2,3-dihydro-1,5-benzoxazepin-4(5H)-one]"
3,100,"CN1C(=O)[C@@H](N2CCc3cn(Cc4ccc(Cl)cc4)nc3C2=O)COc2ccccc21 [Example 20, (3S)-3-(2-(4-chlorobenzyl)-7-oxo-2,4,5,7-tetrahydro-6H-pyrazolo[3,4-c]pyridin-6-yl)-5-methyl-2,3-dihydro-1,5-benzoxazepin-4(5H)-one]"
4,100,"CN1C(=O)[C@@H](N2CCc3cn(Cc4ccccc4Cl)nc3C2=O)COc2ccccc21 [Example 25, (3S)-3-(2-(2-ohlorobenzy)-7-oxo-2,4,5,7-tetrahydro-6H-pyrazolo[3,4-c]pyridin-6-yl)-5-methyl-2,3-dihydro-1,5-benzoxazepin-4(5H)-one]"
5,92,"CN1C(=O)[C@@H](N2CCc3cn(Cc4ccn(C)n4)nc3C2=O)COc2ccccc21 [Example 39, (3S)-5-methyl-3-(2-((1-methyl-1H-pyrazol-3-yl)methyl)-7-oxo-2,4,5,7-tetrahydro-6H-pyrazolo[3,4-c]pyridin-6-yl)-2-,3-dihydro-1,5-benzoxazepin-4(5H)-one]"
6,99,"CN1C(=O)[C@@H](N2CCc3cn(Cc4ccccc4)nc3C2=O)COc2cc(F)ccc21 [Example 152, (3S)-3-(2-benzyl-7-oxo-2,4,5,7-tetrahydro-6H-pyrazolo[3,4-c]pyridin-6-yl)-8-fluoro-5-methyl-2,3-dihydro-1,5-benzoxazepin-4(5H)-one]"
7,100,"Cc1c2c(nn1Cc1cnccn1)C(=O)N([C@H]1COc3ccccc3N(C)C1=O)CC2 [Example 79, (3S)-5-methyl-3-(3-methyl-7-oxo-2-(pyrazin-2-ylmethyl)-2,4,5,7-tetrahydro-6H-pyrazolo[3,4-c]pyridin-6-yl)-2,3-dihydro-1,5-benzoxazepin-4(5H)-one]"
8,78,"CN1C(=O)[C@@H](N2CCc3cn(CC4(C)COC4)nc3C2=O)COc2ccccc21 [Example 154, (3S)-5-methyl-3-(2-((3-methyloxetan-3-yl)methyl)-7-oxo-2,4,5,7-tetrahydro-6H-pyrazolo[3,4-c]pyridin-6-yl)-2,3-dihydro-1,5-benzoxazepin-4(5H)-one]"
